In patent US20120128630A1, “1-(6 MEMBERS AZO-HETEROCYCLIC)-PYRROLIN-2-ONE COMPOUNDS AS INHIBITORS OF HEPATITIS C NS5B POLYMERASE, THE PHARAMACEUTICAL COMPOSITION THEREOF AND THEIR THERAPEUTIC USE” (priority 2009, published 2012):
pEC50: −log10 of the molar value. Where two headings read alike, the source gives them in different places.

Columns and labels:
HCV replicon Luc Neo ET = experiment: Luc Neo ET Replicon assay; format: cell-based, Hepatitis C virus; conditions: Table 3, titled RdRp enzyme assay results, EC50_Replicon LucneoET, 72 hours with compound, luciferase
Protocol: Human Hepatoma Huh-7 cell line was maintained in DMEM/HAMF-12 supplemented with 10% SVF, 4 mM glutamine, […] Na pyruvate, 1% penistreptomycine. HCV replicon containing Huh-7 cell lines Huh-9.13 and Luc Neo ET (Reblikon) were maintained in DMEM supplemented with 10% SVF, 2 mM glutamine, and 1×NEAA, 100 U/ml penicillin, and 100 μg/ml streptomycine. Replicon cells were maintained in medium supplemented with 1 mg/ml G418 for replicon Huh-9.13 and 0.5 mg/ml for Luc Neo et replicon unless indicated otherwise. Huh-7 and HCV replicon cell lines were maintained at 37° C. and 5% CO2 in a humidified atmosphere. Cells were dissociated at sub confluence with trypsin EDTA 1×.
Replicon Luc Neo ET is a bicistronic expression constructs (Lohmann et al, 1999, Science 285, 110-113). In brief, the structural genes of the HCV genome were replaced by heterologous sequences; the gene encoding the neomycin phosphotransferase (NPT) and the internal ribosome entry site (IRES) of the encephalomyocarditis virus (EMCV). The bicistronic construct is therefore composed of the following elements: HCV-IRES nucleotides 1-389, the NPT gene, the EMCV-IRES directing translation of downstream HCV sequences from NS2 or NS3 up to the authentic 3′ end of the genome. HCV Polyprotein harbours the cell culture adaptive mutations E1202G, T1280I, K1846T. G418-resistance is only possible with cells containing high amounts of replicon.
Cells were dissociated the day before addition of compounds and seeded in 96 well-plates at a final concentration of 77 777.77 cells.ml^−1.well^−2 in 90 μl final volume of culture medium per well and were maintained at 37° C. and 5% CO2 in a humidified atmosphere for 24 hours. 10 μl of compounds to be tested were added 24 hours after seeding. Final concentration of DMSO was 1%. Cells were incubated in the presence of compounds for 72 hours after which expression of firefly luciferase reporter gene was quantified. Briefly, culture medium was removed and cells were lysed by addition of 100 μl of lysis buffer containing 125 mM Tris Phosphate ph 7.8, 10 mM EDTA, 5 mM DTT, 50% glycerol and 5% Triton. Plates were vortexed 10 min at 1300 rpm. Cell lysat was transferred in OpaqueWhite Assay 96 well Flat Bottom plates. 100 μl of luciferin solution 1× were added to each well. Luciferin solution contained 40 mM Tris Phosphate ph 7.8, 0.2 mM EDTA, 67 mM DTT, 2.14 mM MgCl2, 5.4 mM MgSO4, 4.7×10^−4 M luciferin, 5.3×10^−4 M ATP and 2.7×10^−4 M Acetyl co enzyme A. Luminescence was immediately measured with Berthold Microlumat Plus LB 96V luminometer with an integration of 0.5 sec Inhibition was calculated using the formula:
% inhibition=1−[(RLUsample−RLUbackground)/(RLUsignal−RLUbackground)]

HCV NS5B genotype 1b = target: T1, HCV NS5B genotype 1b (Hepatitis C virus genotype 1b, UniProt Q9WMX2); experiment: 3D-SCREEN assay (NS5B 3D-Screen platform, luciferase reporter gene); format: cell-based
T1 construct: The protein was expressed with a 21 amino acid C-terminal deletion to remove transmembrane domain; expressed in transfected cells; host or cells: Huh-7
In short: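 Huh-7 cells transiently co-transfected with NS5BΔ21/Gal4-DBD, 3D-Sensor peptide I4/VP16 and firefly luciferase reporter. Compounds added 2 h after seeding, 1% DMSO final, 24 h incubation. Luciferase luminescence read; % inhibition relative to no-compound signal.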

[1] = EC50_3DS_NS5B, Table 1, 3D-SCREEN assay results, Huh-7 cells, 24 hours with compound, firefly luciferase reporter
[2] = EC50_3DS_NS5B, Table 2, titled Replicon assay results

Compound | melting point [°C] | pEC50 (HCV replicon Luc Neo ET; Hepatitis C virus, 72 h) | pEC50 (HCV NS5B genotype 1b; [1]) | pEC50 (HCV NS5B genotype 1b; [2]) | pEC50 (HCV replicon Luc Neo ET) | pEC50 (HCV NS5B genotype 1b; read-out: EC50_3DS_NS5B, Table 2, titled Replicon assay results)
Cc1ccc(C(=O)C2=C(O)C(=O)N(c3ccc(C)nn3)C2c2ccc(C(C)C)cc2)cc1 (stereo not shown) [Example 8, 3-hydroxy-5-(4-isopropyl-phenyl)-4-(4-methyl-benzoyl)-1-(6-methyl-pyridazin-3-yl)-1,5-dihydro-pyrrol-2-one] | 279 | 5.52 | 5.70 | – | – | –
Cc1ccc(N2C(=O)C(O)=C(C(=O)c3ccc(C(C)C)cc3)C2c2ccc(C(C)C)cc2)nn1 (stereo not shown) [Example 20, 3-hydroxy-4-(4-isopropyl-benzoyl)-5-(4-isopropyl-phenyl)-1-(6-methyl-pyridazin-3-yl)-1,5-dihydro-pyrrol-2-one] | 271 | 7.00 | 6.40 | – | – | –
Cc1ccc(C(=O)C2=C(O)C(=O)N(c3ccc(C)nn3)C2c2ccc(OC(F)(F)F)cc2)cc1 (stereo not shown) [Example 22, 3-hydroxy-4-(4-methyl-benzoyl)-1-(6-methyl-pyridazin-3-yl)-5-(4-trifluoromethoxy-phenyl)-1,5-dihydro-pyrrol-2-one] | 269 | 6.30 | 6.22 | – | – | –
Cc1ccc(N2C(=O)C(O)=C(C(=O)c3ccc(OC(F)(F)F)cc3)C2c2ccc(C(C)C)cc2)nn1 (stereo not shown) [Example 25, 3-hydroxy-5-(4-isopropyl-phenyl)-1-(6-methyl-pyridazin-3-yl)-4-(4-trifluoromethoxy-benzoyl)-1,5-dihydro-pyrrol-2-one] | 269 | 6.70 | 6.30 | – | – | –
Cc1ccc(N2C(=O)C(O)=C(C(=O)c3ccc(OC(F)(F)F)cc3)C2c2ccc(OC(F)(F)F)cc2)nn1 (stereo not shown) [Example 96, 3-hydroxy-1-(6-methyl-pyridazin-3-yl)-4-(4-trifluoromethoxy-benzoyl)-5-(4-trifluoromethoxy-phenyl)-1,5-dihydro-pyrrol-2-one] | – | > 6.00 | – | > 6.00 | – | –
Cc1ccc(N2C(=O)C(O)=C(C(=O)c3ccc(C(C)C)cc3)C2c2ccc(C(F)(F)F)nc2)nn1 (stereo not shown) [Example 98, 3-hydroxy-4-(4-isopropyl-benzoyl)-1-(6-methyl-pyridazin-3-yl)-5-(6-trifluoromethyl-pyridin-3-yl)-1,5-dihydro-pyrrol-2-one] | – | > 5.00 | – | > 5.00 | – | –
Cc1ccc(N2C(=O)C(O)=C(C(=O)c3ccc(C(C)C)cc3)C2c2ccc(C(F)(F)F)cn2)nn1 (stereo not shown) [Example 106, 3-hydroxy-4-(4-isopropyl-benzoyl)-1-(6-methyl-pyridazin-3-yl)-5-(5-trifluoromethyl-pyridin-2-yl)-1,5-dihydro-pyrrol-2-one] | – | > 5.00 | – | > 5.00 | – | –
CCOc1ccc(C2C(C(=O)c3ccc(C(C)C)cc3)=C(O)C(=O)N2c2ccc(C)nn2)cn1 (stereo not shown) [Example 110, 5-(6-ethoxy-pyridin-3-yl)-3-hydroxy-4-(4-isopropyl-benzoyl)-1-(6-methyl-pyridazin-3-yl)-1,5-dihydro-pyrrol-2-one] | – | > 6.00 | – | > 6.00 | – | –
Cc1ccc(N2C(=O)C(O)=C(C(=O)c3ccc(C(C)C)cc3)C2c2ccc(C(C)C)cn2)nn1 (stereo not shown) [Example 111, 3-Hydroxy-4-(4-isopropyl-benzoyl)-5-(5-isopropyl-pyridin-2-yl)-1-(6-methyl-pyridazin-3-yl)-1,5-dihydro-pyrrol-2-one] | – | > 5.00 | – | > 5.00 | – | –
Cc1ccc(N2C(=O)C(O)=C(C(=O)c3ccc(OC(C)C)cc3)C2c2ccc(OC(F)(F)F)cc2)nn1 (stereo not shown) [Example 115, 3-hydroxy-4-(4-isopropoxy-benzoyl)-1-(6-methyl-pyridazin-3-yl)-5-(4-trifluoromethoxy-phenyl)-1,5-dihydro-pyrrol-2-one] | – | > 5.00 | – | > 5.00 | – | –
CC(C)c1ccc(C(=O)C2=C(O)C(=O)N(c3ccc(Cl)nn3)C2c2ccc(OC(F)(F)F)cc2)cc1 (stereo not shown) [Example 118, 1-(6-chloro-pyridazin-3-yl)-3-hydroxy-4-(4-isopropyl-benzoyl)-5-(4-trifluoromethoxy-phenyl)-1,5-dihydro-pyrrol-2-one] | – | > 6.00 | – | > 6.00 | – | –
C#Cc1ccc(C2C(C(=O)c3ccc(C(C)C)cc3)=C(O)C(=O)N2c2ccc(C)nn2)cc1 (stereo not shown) [Example 137, 5-(4-ethynyl-phenyl)-3-hydroxy-4-(4-isopropyl-benzoyl)-1-(6-methyl-pyridazin-3-yl)-1,5-dihydro-pyrrol-2-one] | – | > 5.00 | – | > 5.00 | – | –
Cc1ccc(N2C(=O)C(NS(C)(=O)=O)=C(C(=O)c3ccc(C(C)C)cc3)C2c2ccc(OC(F)(F)F)cc2)nn1 (stereo not shown) [Example 149, N-[4-(4-isopropyl-benzoyl)-1-(6-methyl-pyridazin-3-yl)-2-oxo-5-(4-trifluoromethoxy-phenyl)-2,5-dihydro-1H-pyrrol-3-yl]-methanesulfonamide] | – | > 6.00 | – | > 6.00 | – | –
CCOc1ccc(C2C(C(=O)c3ccc(C(C)C)cc3)=C(O)C(=O)N2c2ccc(C)nn2)cn1 (stereo not shown) [Example 155, 2-ethoxy-5-[4-hydroxy-3-(4-isopropyl-benzoyl)-1-(6-methyl-pyridazin-3-yl)-5-oxo-2,5-dihydro-1H-pyrrol-2-yl]-pyridinium; chloride] | – | – | – | – | > 6.00 | > 6.00
Cc1ccc(N2C(=O)C(O)=C(C(=O)c3ccc(C(C)C)cc3)C2c2ccc(C(C)(F)F)cc2)nn1 (stereo not shown) [Example 158, 5-[4-(1,1-difluoro-ethyl)phenyl]-3-hydroxy-4-(4-isopropyl-benzoyl)-1-(6-methyl-pyridazin-3-yl)-1,5-dihydro-pyrrol-2-one] | – | > 6.00 | – | > 7.00 | – | –
Cc1ccc(N2C(=O)C(O)=C(C(=O)c3ccc(C(F)(F)F)cc3)C2c2ccc(OC(F)(F)F)cc2)nn1 (stereo not shown) [Example 162, 3-hydroxy-1-(6-methyl-pyridazin-3-yl)-5-(4-trifluoromethoxy-phenyl)-4-(4-trifluoromethyl-benzoyl)-1,5-dihydro-pyrrol-2-one] | – | > 5.00 | – | > 6.00 | – | –
Cc1ccc(N2C(=O)C(O)=C(C(=O)c3ccc(OC(F)(F)F)cc3)C2c2ccc(OC(C)C)nc2)nn1 (stereo not shown) [Example 169, 3-hydroxy-5-(6-isopropoxy-pyridin-3-yl)-1-(6-methyl-pyridazin-3-yl)-4-(4-trifluoromethoxy-benzoyl)-1,5-dihydro-pyrrol-2-one] | – | > 6.00 | – | > 6.00 | – | –
CCOc1ccc([C@@H]2C(C(=O)c3ccc(C(C)C)cc3)=C(O)C(=O)N2c2ccc(C)nn2)cn1 [Example 192, 5(R)-(6-ethoxy-pyridin-3-yl)-3-hydroxy-4-(4-isopropyl-benzoyl)-1-(6-methyl-pyridazin-3-yl)-1,5-dihydro-pyrrol-2-one] | – | > 6.00 | – | > 6.00 | – | –
Cc1ccc(N2C(=O)C(O)=C(C(=O)c3ccc(C(C)C)cc3)[C@H]2c2ccc(C(F)(F)F)nc2)nn1 [Example 195, 3-hydroxy-4-(4-isopropyl-benzoyl)-1-(6-methyl-pyridazin-3-yl)-5(R)-(6-trifluoromethyl-pyridin-3-yl)-1,5-dihydro-pyrrol-2-one] | – | > 6.00 | – | > 6.00 | – | –
Cc1ccc(N2C(=O)C(O)=C(C(=O)c3ccc(C(C)C)cc3)[C@H]2c2ccc(C(C)(F)F)cc2)nn1 [Example 196, 5(R)-[4-(1,1-difluoro-ethyl)-phenyl]-3-hydroxy-4-(4-isopropyl-benzoyl)-1-(6-methyl-pyridazin-3-yl)-1,5-dihydro-pyrrol-2-one] | – | > 6.00 | – | > 6.00 | – | –
Cc1ccc(N2C(=O)C(NS(C)(=O)=O)=C(C(=O)c3ccc(C(C)C)cc3)[C@H]2c2ccc(OC(F)(F)F)cc2)nn1 [Example 198, N-[4-(4-isopropyl-benzoyl)-1-(6-methyl-pyridazin-3-yl)-2-oxo-5(R)-(4-trifluoromethoxy-phenyl)-2,5-dihydro-1H-pyrrol-3-yl]-methanesulfonamide] | – | > 6.00 | – | > 6.00 | – | –
